# Read-outs that look alike come from different tables or passages of the source.
# Legend:
# Jeko-1 cells = assay: Inhibitory effect on Jeko-1 cell proliferation; format: cell-based; conditions: Homo sapiens; Jeko-1, 72 h incubation, Cell Counting-Lite 2.0
# Procedure: (1) Cell plating: First, tumor cells Jeko-1 were cultured with corresponding culture medium, the cells were resuspended and counted, and finally the cells were adjusted to an appropriate concentration for plating.
# (§1) Co-incubation of the compounds of the present invention and tumor cells: 90 μL of cell suspension was added to 96-well plates respectively. After cell adherence, 10 μL of bioactive molecules (compounds of the present invention) diluted with culture medium were added into the wells of the above plates, and incubated for 72 h.
# (§2) In vitro cell viability detection: After the incubation, 50 μL of Cell Counting-Lite™ 2.0 reagent (Vazyme) was added to each well, shaken and mixed well in the dark, and reacted for 10 minutes before testing. Microplate reader (manufacturer: BMG, Model: PHERA Star-FS) was used for reading. The culture wells without cells were used as the background RLU, and the culture wells with cells but no compound were used as the cell control RLU. Cell inhibition rate=1−(sample RLU−background RLU)/(cell control RLU−background RLU)×100%. The half-inhibition concentration (IC50) of compound was calculated by fitting the curve according to the four-parameter model.
# HCC1806 cells = assay: Inhibitory effect on HCC1806 cell proliferation; format: cell-based; conditions: Homo sapiens; HCC1806, 72 h incubation, Cell Counting-Lite 2.0
# Procedure: (1) Cell plating: First, tumor cells HCC1806 were cultured with corresponding culture medium, the cells were digested with trypsin and centrifuged, then the cells were resuspended and counted, and the cells were adjusted to an appropriate concentration for plating.
# as §1, §2
# HT29 cells = assay: Inhibitory effect on HT29 cell proliferation; format: cell-based; conditions: Homo sapiens, HT-29; HT29, 72 h incubation, Cell Counting-Lite 2.0
# Procedure: (1) Cell plating: First, tumor cells HT29 were cultured with corresponding culture medium, the cells were digested with trypsin and centrifuged, then the cells were resuspended and counted, and the cells were adjusted to an appropriate concentration for plating.
# as §1, §2
# NCI-H358 cells = assay: Inhibitory effect on NCI-H358 cell proliferation; format: cell-based; conditions: Homo sapiens; NCI-H358, 72 h incubation, Cell Counting-Lite 2.0
# Procedure: (1) Cell plating: First, tumor cells NCI-H358 were cultured with corresponding culture medium, the cells were digested with trypsin and centrifuged, then the cells were resuspended and counted, and the cells were adjusted to an appropriate concentration for plating.
# as §1, §2
# NCI-N87 cells = assay: Inhibitory effect on NCI-N87 cell proliferation; format: cell-based; conditions: Homo sapiens, read-out: IC50 (nM), inhibitory activity on NCI-N87 cell proliferation
# Procedure: (1) Cell plating: First, tumor cells NCI-N87 were cultured with corresponding culture medium, the cells were digested with trypsin and centrifuged, then the cells were resuspended and counted, and the cells were adjusted to an appropriate concentration for plating.
# as §1, §2
# [1] = Permeability test in MDCK cell model; format: in vitro ADME; conditions: dog; for efflux ratio at 120 min, 2 μM: pH 7.4, 2.00 μM, Papp(B→A)/Papp(A→B), absence of P-gp inhibitor, read-out: Efflux ratio (ERa)
# Procedure: (§3) The MDCK cell model was used to evaluate the permeability of the compounds, the LC-MS/MS method was used to determine the concentration of the substance to be tested, and the apparent permeability coefficient (Papp) and efflux ratio were calculated [Efflux ratio=Papp(B→A)/Papp(A→B)].
# (§4) Complete culture medium: 10% fetal bovine serum and 1% penicillin/streptomycin were added to MEM culture medium.
# (§5) Digestive solution: 0.05% trypsin-EDTA.
# (§6) HBSS buffer: HBSS containing Ca^2+, Mg^2+.
# (§7) Permeating solution: HBSS containing 10 mM Hepes, 4% BSA, pH 7.4.
# (§8) Compound stock solution: a certain amount of the compound to be tested was weighed and formulated with DMSO to prepare a 10 mM stock solution.
# (§9) MDCK cells (26th generation) in the logarithmic growth phase were digested and dispersed evenly with 0.05% trypsin-EDTA, and then inoculated into the Transwell chamber at 3*10^5 cells/cm^2, with 200 μL on the A side and 1000 μL on the B side. After inoculation, the medium was changed once every day and the culturing was carried out for 3 to 4 days.
# (§10) The cell culture medium was discarded by pipetting, then washing was carried out three times with the permeating solution. 200 μL of permeating solution was added to A side and 1000 μL of permeating solution was added to B side. A voltage resistance meter was used to measure the cell transmembrane resistance (TEER). After the TEER value of the cells was measured, the permeating solution on both sides was discarded by pipetting, and the solution was added. After 120 minutes, 150 μL of samples were taken from A side and B side, respectively, and frozen at −80° C. before testing. Then, 10 μg/ml Fluorescent Yellow was added to A side. After incubation for 30 minutes, 100 μL of solution at B side was pipetted and added into a 96-well white plate. The fluorescence value was measured at the wavelengths of Ex=485 nm and Em=530 nm using a microplate reader, and the permeance was calculated (which was less than 1%).
# (§11) 80 μL of the compound to be tested was taken, added to 320 μL of acetonitrile solution containing internal standard (30 ng/mL Tolbutamide), vortexed, and centrifuged for 10 min (4000 rpm, 4° C.), and the supernatant was taken for LC-MS/MS analysis.
# (§12) Excel 2013 was used to calculate Papp values and Papp ratio of B side→A side to A side→B side, and the recovery rates of each Control Compound and the compound to be tested were calculated.
# (§13) Apparent permeability coefficient (Papp) of compound was calculated according to the following formula:
# (§14) C0 was the initial concentration (μM) of the drug to be tested at the donor, (dCr/dt)×Vr was the rate (μM/s) at which the drug to be tested appeared at the receiver, Vr was the solution volume (mL) at the receiver, and A was the surface area (cm^2) of polycarbonate membrane.
# (§15) Evaluation criteria: Low permeability: Papp≤0.5 (×10^−6 cm/s) • Medium permeability: 0.5<Papp<2.5 (×10^−6 cm/s) • High permeability: Papp≥2.5 (×10^−6 cm/s)
# (§16) Efflux ratio (ER) was calculated according to Papp:
# (§17) [formula] • wherein, Papp(B→A) was the apparent permeability coefficient of the drug to be tested from the BL (baso-lateral) end to the AP (apical) end, and Papp (A→B) was the apparent permeability coefficient of the drug to be tested from the AP end to the BL end.
# (§18) • Probably being an efflux transporter substrate (Probably): ERa≥2 and ERa/ERi>2 • Likely being an efflux transporter substrate (Likely): ERa≥2 • Unlikely or impossibly being an efflux transporter substrate (Poor or non): ERa<2 • wherein, ERi and ERa were the efflux ratios of the compound to be tested in the presence and absence of P-gp inhibitor, respectively.
# MDCK cells = assay: Permeability test in MDCK cell model; format: in vitro ADME
# Procedure: as §3, §4, §5, §6, §7, §8, §9, §10, §11, §12, §13, §14, §15, §16, §17, §18
# MDA-MB-453 cells = assay: Inhibitory effect on MDA-MB-453 cell proliferation; format: cell-based; conditions: Homo sapiens; MDA-MB-453, 72 h incubation, Cell Counting-Lite 2.0
# Procedure: (1) Cell plating: First, tumor cells MDA-MB-453 were cultured with corresponding culture medium, the cells were digested with trypsin and centrifuged, then the cells were resuspended and counted, and the cells were adjusted to an appropriate concentration for plating.
# as §1, §2
# MDA-MB-231 cells = assay: Inhibitory effect on MDA-MB-231 cell proliferation; format: cell-based; conditions: Homo sapiens; MDA-MB-231, 72 h incubation, Cell Counting-Lite 2.0
# Procedure: (1) Cell plating: First, tumor cells MDA-MB-231 were cultured with corresponding culture medium, the cells were digested with trypsin and centrifuged, then the cells were resuspended and counted, and the cells were adjusted to an appropriate concentration for plating.
# as §1, §2
# [2] = NCI-N87, 72 h incubation, Cell Counting-Lite 2.0
# [3] = pH 7.4, concentration 2.00 μM, 120 minutes, A to B, read-out: Papp A to B
# [4] = pH 7.4, concentration 2.00 μM, 120 minutes, B to A, read-out: Papp B to A
SMILES,IC50 (Jeko-1 cells) [nM],IC50 (HCC1806 cells) [nM],IC50 (HT29 cells) [nM],IC50 (NCI-H358 cells) [nM],IC50 (NCI-N87 cells; [2]) [nM],"Papp A→B at 120 min, 2 μM ([1]; pH 7.4) [×10⁻⁶ cm/s]","Papp B→A at 120 min, 2 μM ([1]; pH 7.4) [×10⁻⁶ cm/s]","efflux ratio at 120 min, 2 μM [1]",Permeability class according to the Papp(A→B) results (MDCK cells),Efflux transporter substrate evaluation from efflux ratio (MDCK cells; 2.00 μM),"Papp A→B at 120 min, 2 μM [1, 3] [×10⁻⁶ cm/s]","Papp B→A at 120 min, 2 μM [1, 4] [×10⁻⁶ cm/s]",Permeability class according to the Papp(A→B) results (MDCK cells; 2.00 μM),IC50 (MDA-MB-453 cells) [nM],"IC50 (NCI-N87 cells; NCI-N87, 72 h) [nM]",IC50 (MDA-MB-231 cells) [nM]
"CC[C@@]1(O)C(=O)OCc2c1cc1n(c2=O)Cc2c-1nc1cc(F)c(Cl)cc1c2CNC(=O)C(O)C(F)(F)F (stereo partly drawn) [Compound 2-19, N—(((S)-9-chloro-4-ethyl-8-fluoro-4-hydroxy-3,14-dioxo-3,4, 12,14-tetrahydro-1H-pyrano[3′,4′:6,7]indolizino[1,2-b]quinolin-11-yl)methyl)-3,3,3-trifluoro-2-hydroxypropionamide]",1.09,0.78,2.93,12.7,5.69,0.5,0.73,1.48,low-permeability,not efflux transporter substrates or were weak efflux transporter substrates,,,,,,
"CC[C@@]1(O)C(=O)OCc2c1cc1n(c2=O)Cc2c-1nc1cc(F)c(C)cc1c2CNC(=O)CO [Control Compound 2, reference compound]",,,,,,,,28,,could be efflux transporter substrates,0.01,0.4,low-permeability,,,
CC[C@@]1(O)C(=O)OCc2c1cc1n(c2=O)Cc2c-1nc1cc(F)c(Cl)cc1c2CNC(=O)C(O)C1CC1 (some centres unmarked) [Compound 2-4],0.34,1.08,5.99,53.4,,,,,,,,,,95.6,5.72,
"C=CC(O)C(=O)NCc1c2c(nc3cc(F)c(Cl)cc13)-c1cc3c(c(=O)n1C2)COC(=O)[C@]3(O)CC (stereo partly drawn) [Compound 2-22, N—(((S)-9-chloro-4-ethyl-8-fluoro-4-hydroxy-3,14-dioxo-3,4, 12,14-tetrahydro-1H-pyrano[3′,4′:6,7]indolizino[1,2-b]quinolin-11-yl)methyl)-2-hydroxy-3-enamine]",1.11,6.09,10.2,,7.27,0.71,1.59,2.24,medium-permeability,could be efflux transporter substrates,,,,,,
"CC[C@@]1(O)C(=O)OCc2c1cc1n(c2=O)Cc2c-1nc1cc(F)c(C)cc1c2CN [Control Compound 1, reference compound]",,,,,,,,2.06,,could be efflux transporter substrates,1.31,2.71,medium-permeability,,,
"CC[C@@]1(O)C(=O)OCc2c1cc1n(c2=O)Cc2c-1nc1cc(F)c(C)c3c1c2[C@@H](NC(N)=O)CC3 [Compound 7-2, 1-((1S,9S)-9-ethyl-5-fluoro-9-hydroxy-4-methyl-10,13-dioxy-2,3,9,10,13,15-hexahydro-1H,12H-benzo[de]pyrano[3′,4′:6,7]indolizino[1,2-b]quinolin-1-yl)urea]",2.17,18.6,22.8,287,,,,,,,,,,203,80.8,30.6
"CC[C@@]1(O)C(=O)OCc2c1cc1n(c2=O)Cc2c-1nc1cc(F)c(C)c3c1c2[C@@H](NS(N)(=O)=O)CC3 [Compound 7-1, (1S,9S)-1-sulfamoylamido-9-ethyl-5-fluoro-9-hydroxy-4-methyl-1,2,3,9,12,15-hexahydro-10H,13H-benzo[de]pyranol[3′,4′:6,7]indolizino[1,2-b]quinolin-10,13-dione]",4.07,3.67,10.1,268,,,,,,,,,,50.2,31.3,31
"CC[C@@]1(O)C(=O)OCc2c1cc1n(c2=O)Cc2c-1nc1cc(F)c(Cl)cc1c2CN [Compound 1-1, (S)-11-(aminomethyl)-9-chloro-4-ethyl-8-fluoro-4-hydroxy-1,12-dihydro-14H-pyrano[3′,4′:6,7]indolizino[1,2-b]quinolin-3,14(4H)-dione]",,1.23,1.07,25.7,,,,1.41,,not efflux transporter substrates or were weak efflux transporter substrates,2.59,3.65,high-permeability,291,8.59,3.55
"CC[C@@]1(O)C(=O)OCc2c1cc1n(c2=O)Cc2c-1nc1cc(F)c(C)c3c1c2[C@@H](NC(=O)CO)CC3 [Control Compound 3, reference compound]",,,,,,,,15.2,,could be efflux transporter substrates,0.31,4.65,low-permeability,,,

# From patent US20260258051A1, “Camptothecin Compound, Preparation Method Therefor and Use Thereof” (SICHUAN KELUN-BIOTECH BIOPHARMACEUTICAL CO., LTD., priority 2022, published 2026)
